In patent US9856290B2, “Glycopeptide compositions and uses thereof” (SUSSEX RESEARCH LABORATORIES INC., priority 2013, dated 2018):
Primed or numbered codes have the meaning given here. Where no end group is shown, it is not given here. The star is where a group is joined. Ac3‑α‑GalNAc = per-acetylated α-N-acetylgalactosamine (O-glycoside), CC(=O)N[C@@H]1[C@@H](OC(C)=O)[C@@H](OC(C)=O)[C@@H](COC(C)=O)O[C@@H]1*; Ac3‑α‑GalNAc″ = peracetylated alpha-N-acetylgalactosamine, CC(=O)N[C@@H]1[C@@H](OC(C)=O)[C@@H](OC(C)=O)[C@@H](COC(C)=O)O[C@@H]1*; Ac3‑β‑GlcNAc = per-acetylated β-N-acetylglucosamine, CC(=O)N[C@@H]1[C@@H](OC(C)=O)[C@H](OC(C)=O)[C@@H](COC(C)=O)O[C@H]1*; β‑maltose = OC[C@H]1O[C@H](O[C@H]2[C@H](O)[C@@H](O)[C@H](*)O[C@@H]2CO)[C@H](O)[C@@H](O)[C@@H]1O; αGalNAc = CC(=O)N[C@@H]1[C@@H](O)[C@@H](O)[C@@H](CO)O[C@@H]1*; βGlc = OC[C@H]1O[C@@H](*)[C@H](O)[C@@H](O)[C@@H]1O; Palmitoyl = CCCCCCCCCCCCCCCC(=O)*

What was measured:
[1] = test system: Human Dermal Fibroblasts (KMST-6); test: ECM ELISA assay: elastin secretion by human dermal fibroblasts; format: cell-based; conditions: 5 μM, % compared to control set at 100%, normalized to total protein; for Elastin Secretion at 48 hours: KMST-6, 48 hours; for Elastin Secretion at 72 hours: KMST-6, 72 hours
Experimental: (§1) KMST-6 cells (Japan Health Sciences Foundation, JCRB0433) were seeded at 7,000 cells/ml in 12-well tissue culture treated plates (Falcon, 353043) in complete media. The complete media consisted of the following: MEM/EBSS (Hyclone, SH30024.01), 10% Heat-Inactivated FBS (Gibco, 10082-147), 1% L-Glutamine (Hyclone, SH30031.01), 1% Nucleosides (800 mg/L Adenosine, 850 mg/L Guanidine, 730 mg/L Cytidine, 730 mg/L Uridine and 240 mg/L Thymidine), 1% Penicillin/Streptomycin (HyClone, SV30010), 1% Sodium Pyruvate (HyClone, SH30239.01), 1% Non-Essential Amino Acids (Hyclone, SH30238.01) and 0.04% Gentamicin (Gibco, 15710-064). Cells were grown for 2 days prior to treatments. The media was aspirated and cells were washed with 1×PBS (Fisher, SH30256.01) and treated with 5 μM (1 mL/well) glycopeptides, reference (Pal-KTTKS, CPC Scientific, 822197), and control (DMSO, Fisher, BP231-100) in serum-free media supplemented with 50 μg/mL Sodium Ascorbate (Sigma, A4034) and 80 μg/mL β-Aminopropionate Fumarate (Sigma, A3134). The treated cells were incubated at 37° C. and 5% CO2 for 48 and 72 hours. At each timepoint, media from each treatment was collected and centrifuged at 1500 RPM for 15 minutes at 4° C. The supernatant was collected and stored at −80° C. for extracellular matrix protein quantification. The following kits were used for quantification of ECM proteins: Fibronectin (Takara, MK115) and Elastin (Uscn Life Science Inc., E91337Hu). The cells were harvest and lysed with 250 μL Lysis Buffer (20 mM Tris-HCl (Sigma, T1503), 137 mM NaCl (Sigma, S9888), 2 mM EDTA (Fisher, BP118), 1% IGEPAL (Sigma, 18896), 10% Glycerol (Sigma, G5516), 100 μM PMSF (Fisher, 36978) and 10 μg/mL Leupeptin (Sigma-Aldrich, L2884). They were placed on a container of ice on a plate shaker (Lab-Line Instruments, 3595) for 30 minutes. The lysate was centrifuged at 10,000 g for 5 minutes at 4° C. The supernatant was collected and used for protein quantification (BioRad, 500-0112).
(§2) To determine effects on extracellular matrix protein secretion, 5 μM of individual glycopeptides were incubated with Human Dermal Fibroblasts (KMST-6). The control sample cells were treated with DMSO (Fisher, BP231-100). As described previously, supernatant was collected from treated cells (at two time-points, 48 and 72 hours of treatment) and stored at −80° C. for subsequent extracellular matrix protein quantification using ELISA kits (Fibronectin (Takara, MK115), Elastin (Uscn Life Science Inc., E91337Hu). For the determination of total cellular protein, treated cells were harvested and lysed. The lysate was centrifuged, the supernatant was collected and then used for protein quantification (BioRad, 500-0112). ELISA plates were read on the plate reader (Molecular Devices) at absorbance of 450 nm and SoftMax Pro software was used to compute the μg/ml values of protein of interest derived from the generated 4-parameter fit standard curve. Each μg/ml of protein secreted was normalized to total protein per well. The data was analysed by averaging out normalized values from at least three independent experiments and presenting them as a % compared to control treatment set at 100% (Table 2-5). Statistical significance was performed using One-way ANOVA (p<0.05) where “*” represents statistical significance when compared to control and “#” represents statistical significance when compared to reference. […]

[2] = test system: Human Dermal Fibroblasts (KMST-6); test: ECM ELISA assay: fibronectin secretion by human dermal fibroblasts; format: cell-based; conditions: 5 μM, % compared to control set at 100%, normalized to total protein; for Fibronectin secretion at 48 hours: KMST-6, 48 hours; for Fibronectin Secretion at 72 hours: KMST-6, 72 hours
Experimental: as §1, §2

Substance	Elastin Secretion at 48 hours [1]	Elastin Secretion at 72 hours [1]	Fibronectin secretion at 48 hours [2]	Fibronectin Secretion at 72 hours [2]
Pal-KT(Ac3-β-GlcNAc)TKS-OH (Palmitoyl-KT(Ac3‑β‑GlcNAc)TKS-OH; SMILES CCCCCCCCCCCCCCCC(=O)N[C@@H](CCCCN)C(=O)N[C@H](C(=O)N[C@H](C(=O)N[C@@H](CCCCN)C(=O)N[C@@H](CO)C(=O)O)[C@@H](C)O)[C@@H](C)O[C@@H]1O[C@H](COC(C)=O)[C@@H](OC(C)=O)[C@H](OC(C)=O)[C@H]1NC(C)=O; listed as Homo sapiens) [GP001-5]	81.67%	90.00%	125.0%	105.0%
Pal-KT(Ac3-α-GalNAc)-T(Ac3-α-GalNAc)KS-OH (Palmitoyl-KT(Ac3‑α‑GalNAc″)T(Ac3‑α‑GalNAc″)KS-OH; SMILES CCCCCCCCCCCCCCCC(=O)N[C@@H](CCCCN)C(=O)N[C@H](C(=O)N[C@H](C(=O)N[C@@H](CCCCN)C(=O)N[C@@H](CO)C(=O)O)[C@@H](C)O[C@H]1O[C@H](COC(C)=O)[C@H](OC(C)=O)[C@H](OC(C)=O)[C@H]1NC(C)=O)[C@@H](C)O[C@H]1O[C@H](COC(C)=O)[C@H](OC(C)=O)[C@H](OC(C)=O)[C@H]1NC(C)=O; listed as Homo sapiens) [GP001-13]	123.8%	131.3%	114.0%	94.50%
Dal-KT(β-Mal)TKS-OH (KT(β‑maltose)TKS-OH; not fully specified (N-terminus); printed as Dal-KT(β-Mal)TKS-OH; listed as Homo sapiens) [GP003-10]	149.5%	127.6%	144.5%	94.70%
Pal-KTT(Ac3-α-GalNAc)KS-OH (Palmitoyl-KTT(Ac3‑α‑GalNAc)KS-OH; SMILES CCCCCCCCCCCCCCCC(=O)N[C@@H](CCCCN)C(=O)N[C@H](C(=O)N[C@H](C(=O)N[C@@H](CCCCN)C(=O)N[C@@H](CO)C(=O)O)[C@@H](C)O[C@H]1O[C@H](COC(C)=O)[C@H](OC(C)=O)[C@H](OC(C)=O)[C@H]1NC(C)=O)[C@@H](C)O; listed as Homo sapiens) [GP001-9]	103.7%	104.3%	123.4%	104.8%
Pal-N(β-Glc)KTTKS-OH (Palmitoyl-N(βGlc)KTTKS-OH; listed as Homo sapiens) [GP003-8]	111.3%	146.5%	157.2%	126.0%
Pal-KTTKS(α-GalNAc)-OH (Palmitoyl-KTTKS(αGalNAc)-OH; SMILES CCCCCCCCCCCCCCCC(=O)N[C@@H](CCCCN)C(=O)N[C@H](C(=O)N[C@H](C(=O)N[C@@H](CCCCN)C(=O)N[C@@H](CO[C@H]1O[C@H](CO)[C@H](O)[C@H](O)[C@H]1NC(C)=O)C(=O)O)[C@@H](C)O)[C@@H](C)O; listed as Homo sapiens) [GP002-2]	143.8%	127.0%	95.7%	90.60%
